Measurements reported in publication PMC6099102, “Effect of the Nature of Donor Atoms on the Thermodynamic, Kinetic and Relaxation Properties of Mn(II) Complexes Formed With Some Trisubstituted 12-Membered Macrocyclic Ligands” (Frontiers in Chemistry, 2018).
Where two headings read alike, the source gives them in different places.

Legend:
[1] = ref Rolla et al. ([2013]); cited from earlier work
[2] = Longitudinal water proton relaxivity (r1p) of the Mn(II) complexes; format: physicochemical; conditions: 0.5 T field strength, 25 °C and pH = 7.4
Protocol: The relaxometric data were collected using a Bruker Minispec MQ20 NMR relaxometer. […] A datapoint plotted on figures represents an average of 5–6 T1 measurements (Figures S3–S9 in Supplementary Material). The data were fitted by using the molar r1p relaxivity value of the MnCl2 ([…] at 0.49 T and 25 °C). The equilibrium constants were calculated using the PSEQUAD program (Zékány and Nagypál, [1985]).
The longitudinal water proton relaxation rates (r1 = 1/T1-1/Tw) were measured at 20 MHz with a Bruker Minispec MQ-20 relaxometer (Bruker Biospin, Germany). Samples were thermostated by using a circulating water bath at 25.0 ± 0.2 °C. The longitudinal relaxation times (T1) were measured by the inversion-recovery method (180° − τ − 90°), averaging 5–6 data points collected for each concentration point obtained from 14 different τ values (τ values ranging between 0 to at least 6 times the expected T1). The relaxivity of the complexes was determined by titrating a nearly 1.0 mM ligand solution with a Mn(II) stock solution at pH = 7.22–7.43 (50 mM HEPES buffer, I = 0.15 M NaCl, 25 °C). Under these conditions, the only Mn(II) ion containing species present in solution is the [Mn(L)], which was supported by the r1 vs. pH profiles. The relaxivity of the complex was determined as the slope of the strait line obtained by plotting 1/T1p values as a function of Mn(II) concentration for samples with [Ligand] > [Mn(II)]. The relaxivity of [Mn(DOTP)]^6− and [Mn(DO3P)]^4− was determined in the pH range of 10.0–11.0 and 8.5–9.3, respectively where mainly the [Mn(DO3P)]^4− and [Mn(DOTP)]^6− complex exists in solution (Figures S4 and S9 in Supplementary Material).
The relaxivity (r1p, mM^−1s^−1) is defined as the longitudinal water proton relaxation rate in a solution containing 1.0 mM concentration of the paramagnetic species. It characterizes the efficiency of a paramagnetic metal chelate to enhance the solvent proton relaxation rate at a given magnetic field (usually 20 MHz) and temperature. The inner-sphere contribution to relaxivity is directly proportional to the number of metal bound water molecules (q), and therefore, relaxivity values may provide some useful information on the hydration state of paramagnetic complexes of similar molecular weights and electronic relaxation times. […] The r1p values of the Mn(II) complexes formed with heptadentate 12-membered macrocyclic ligands were determined at 0.5 T field strength and 25 °C and reported in Table 4 along with some relaxivity data published for the complexes of hexa-, hepta- and octadentate ligands. […] Below these pH ranges the phosphonate moieties undergo protonation, which further increases the relaxivity (2.60–2.90 mM^−1s^−1 values were observed near pH = 7.4, see Supplementary Material). Similar increase in the relaxivity (to 3.20 mM^−1s^−1 at 20 MHz, 37 °C) is observed for the [Mn(DOTA)]^2− complex upon its protonation and formation of the thermodynamically stable diprotonated [Mn(H2DOTA)] complex that exists as a non-hydrated chelate both in solution and in the solid state (Wang and Westmoreland, [2009]). The relaxivity of the diprotonated species at t → 0 time point was determined from the extrapolation of the relaxivity vs. time data collected after acidification of the samples containing the complexes. The X-ray crystallographic structure of [Mn(H2DOTA)] indicates the protonation of two trans carboxylate moieties (e.g., the coordination around the metal ion is similar to that observed in [Mn(trans-DO2A)] as determined by DFT calculations). Thus, the relaxivity of the diprotonated [Mn(H2DOTA)] and [Mn(H2DOTMA)] complexes is expected to be similar to that of [Mn(trans-DO2A)] (when q = 0). The value obtained by us is considerably higher, which highlights the importance of prototropic exchange as a useful tool to improve the relaxivity of the complexes (however, it has to be underlined that the protonation of the complex generally leads to a decrease in kinetic inertness).

Structure (SMILES)	r1p [1] [mM⁻¹ s⁻¹]	r1p [2] [mM⁻¹ s⁻¹]
O=C(O)CN1CCNCCN(CC(=O)O)CCN(CC(=O)O)CC1 [DO3A]	1.30	–
O=C(CN1CCN(CC(=O)N2CCCCC2)Cc2cccc(n2)CN(CC(=O)N2CCCCC2)CC1)N1CCCCC1.[Mn+2] [[Mn(PC3AM^Pip)]^2+]	–	1.28
